Activity calls are given as the source filed them. The calls are words filed in the database; no cut-off is given here.
Assays:
[1] = molecular target: T1, Estrogen receptor (Homo sapiens) (UniProt P03372); test: Displacement of [2,4,6,7-3H]17beta-estradiol from human recombinant ERalpha receptor by liquid scintillation counter relative to 17-beta-estradiol
T1 sequence (whole entry): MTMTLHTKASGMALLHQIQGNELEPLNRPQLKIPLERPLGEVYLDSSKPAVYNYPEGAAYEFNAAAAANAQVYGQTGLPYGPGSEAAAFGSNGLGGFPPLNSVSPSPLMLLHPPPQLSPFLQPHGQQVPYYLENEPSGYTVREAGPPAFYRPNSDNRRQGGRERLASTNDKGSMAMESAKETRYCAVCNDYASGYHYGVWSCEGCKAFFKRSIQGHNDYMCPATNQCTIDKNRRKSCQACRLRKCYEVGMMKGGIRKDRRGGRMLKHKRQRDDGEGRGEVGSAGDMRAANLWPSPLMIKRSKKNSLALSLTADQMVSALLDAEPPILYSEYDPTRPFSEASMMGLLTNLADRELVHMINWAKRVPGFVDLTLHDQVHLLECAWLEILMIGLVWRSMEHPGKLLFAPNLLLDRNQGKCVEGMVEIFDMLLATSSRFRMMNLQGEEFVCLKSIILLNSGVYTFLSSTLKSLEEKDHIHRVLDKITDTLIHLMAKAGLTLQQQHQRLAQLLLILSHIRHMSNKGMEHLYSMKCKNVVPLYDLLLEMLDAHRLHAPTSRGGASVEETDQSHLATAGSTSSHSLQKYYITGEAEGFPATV

MCF7 [2] = test: Estrogenic activity in human MCF7 cells assessed as cell proliferation after 6 days by WST8 assay relative to 17-beta-estradiol; assay type: functional
[3] = molecular target: Estrogen receptor beta (Homo sapiens) (UniProt Q92731); test: Displacement of [2,4,6,7-3H]17beta-estradiol from human recombinant ERbeta receptor by liquid scintillation counter relative to 17-beta-estradiol
MCF7 [4] = test: Antiestrogenic activity in human MCF7 cells; assay type: functional, cell-based
MCF7 [5] = test: cells; details: Homo sapiens, MCF7, 144 h
Homo sapiens = species on record: Homo sapiens; test: Selectivity ratio of relative binding affinity for human recombinant ERalpha receptor to relative binding affinity for human recombinant ERbeta receptor
MCF7 [6] = test: Estrogenic activity in human MCF7 cells assessed as cell proliferation after 6 days by WST8 assay

Chain of Estrogen receptor beta (Homo sapiens) (Q92731 whole entry): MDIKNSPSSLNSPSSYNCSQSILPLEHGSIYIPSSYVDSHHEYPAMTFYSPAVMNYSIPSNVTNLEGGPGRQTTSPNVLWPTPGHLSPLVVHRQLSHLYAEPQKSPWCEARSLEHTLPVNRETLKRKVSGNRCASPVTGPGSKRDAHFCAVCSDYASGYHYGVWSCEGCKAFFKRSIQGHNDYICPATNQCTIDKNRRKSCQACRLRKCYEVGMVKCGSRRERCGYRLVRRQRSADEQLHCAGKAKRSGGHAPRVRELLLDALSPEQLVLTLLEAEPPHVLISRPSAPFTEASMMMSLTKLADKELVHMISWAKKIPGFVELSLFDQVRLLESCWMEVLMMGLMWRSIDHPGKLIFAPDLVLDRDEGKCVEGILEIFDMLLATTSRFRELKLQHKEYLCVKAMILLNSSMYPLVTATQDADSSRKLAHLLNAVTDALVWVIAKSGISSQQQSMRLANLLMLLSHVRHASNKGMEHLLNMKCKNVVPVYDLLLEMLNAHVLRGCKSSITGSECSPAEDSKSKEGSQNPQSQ

| SMILES | relative binding affinity (RBA) [1] | Activity (MCF7 [2]) | relative binding affinity (RBA) [3] | Activity (MCF7 [4]) | EC50 (MCF7 [5]) [nM] | Ratio (Homo sapiens) | Activity (MCF7 [6]) |
| --- | --- | --- | --- | --- | --- | --- | --- |
| Oc1ccc(N(CC23CC4CC(CC(Br)(C4)C2)C3)c2ccc(O)cc2)cc1 | 0.551 | 77 | 0.565 | inactive | 11000 | 1.02 | – |
| O=S(=O)(c1ccc(O)cc1)N(c1ccc(O)cc1)c1ccc(O)cc1 | 0.352 | 99 | 0.004 | inactive | 12 | 0.011 | – |
| Oc1ccc(N(c2ccc(O)cc2)C2CCCCC2)cc1 | 1.13 | 64 | 4.3 | inactive | 590 | 3.8 | – |
| Oc1ccc(N(c2ccccc2)c2ccc(O)cc2)cc1 | 1.29 | 87 | 1.91 | inactive | 120 | 1.48 | – |
| CN(c1ccc(O)cc1)c1ccc(O)cc1 | < 0.001 | – | < 0.001 | inactive | – | – | inactive |
| Oc1ccc(N(CC2CCCCC2)c2ccc(O)cc2)cc1 | 0.89 | 109 | 6.7 | inactive | 210 | 7.52 | – |
| Oc1ccc(N(CC2CC2)c2ccc(O)cc2)cc1 | 0.054 | – | < 0.001 | inactive | – | – | – |
| O=C(c1ccccc1)N(c1ccc(O)cc1)c1ccc(O)cc1 | 0.193 | 114 | 1.26 | inactive | 14 | 6.52 | – |
| CC(C)N(c1ccc(O)cc1)c1ccc(O)cc1 | < 0.001 | – | < 0.001 | inactive | – | – | inactive |
| CCCCCCN(c1ccc(O)cc1)c1ccc(O)cc1 | 0.153 | 130 | 0.102 | inactive | 11 | 0.667 | – |
| CS(=O)(=O)N(c1ccc(O)cc1)c1ccc(O)cc1 | < 0.001 | 213 | < 0.001 | inactive | 6900 | – | – |
| Oc1ccc(N(CCC2CCCCC2)c2ccc(O)cc2)cc1 | 3.64 | 71 | 6.84 | inactive | 500 | 1.88 | – |
| Oc1ccc(Nc2ccc(O)cc2)cc1 | < 0.001 | – | < 0.001 | inactive | – | – | inactive |
| CC(C)CCN(c1ccc(O)cc1)c1ccc(O)cc1 | 0.129 | 31 | 2.34 | inactive | 570 | 18.1 | – |
| Oc1ccc(N(Cc2ccccc2)c2ccc(O)cc2)cc1 | 0.655 | 85 | 18.1 | inactive | 67 | 27.7 | – |
| O=S(=O)(c1ccccc1)N(c1ccc(O)cc1)c1ccc(O)cc1 | 0.04 | 98 | < 0.001 | inactive | 63 | – | – |
| Oc1ccc(CN(c2ccc(O)cc2)c2ccc(O)cc2)cc1 | 4.26 | 42 | 4.05 | inactive | 370 | 0.951 | – |
| O=C(c1ccc(O)cc1)N(c1ccc(O)cc1)c1ccc(O)cc1 | 0.336 | 240 | 0.063 | inactive | 5.2 | 0.188 | – |
| CC(=O)N(c1ccc(O)cc1)c1ccc(O)cc1 | < 0.001 | 114 | < 0.001 | inactive | 43000 | – | – |

From ChEMBL document CHEMBL1141697, “Promising core structure for nuclear receptor ligands: design and synthesis of novel estrogen receptor ligands based on diphenylamine skeleton” (Bioorg Med Chem Lett, 2008)
